Assays:
[1] = test system: interleukin-13 (IL-13); experiment: PMA/ionomycin-induced interleukin-13 in RBL-2H3 cells (ELISA); type: cell-based, rat; details: RBL-2H3 cells, 0, 1, 2, 4 and 8 µg/mL, 24 h
Method: RBL-2H3 cells were seeded at an initial density of 2×10^5 cells/well in a 24-well plate and cultured at 37° C. for 16 to 24 hours. Subsequently, compound 27 of the present invention was added to the RBL-2H3 cell culture medium at final concentrations of 0, 1, 2, 4, and 8 µg/mL, and the cells were cultured at 37° C. for 1 hour. Next, to induce interleukin-13, the culture medium was treated with PMA ([…], Sigma-Aldrich, USA) and ionomycin (Sigma-Aldrich, USA) to final concentrations of 50 ng/mL and […], respectively, and the cells were cultured for an additional 24 hours at 37° C. The culture supernatant was then collected, and the amount of induced interleukin-13 from RBL-2H3 cells was determined using an ELISA kit (R&D Systems, USA) according to the manufacturer's instructions. FIG. 2 (b) represents the results. […] This indicates the anti-inflammatory effect of compound 27 of the present invention.

[2] = test system: HDM-induced atopic dermatitis mice; experiment: House dust mite (HDM) atopic dermatitis mouse model, dermatitis score; type: in vivo, Nc/Nga mice; details: topical or oral, 10 days after administration, vs control group
Excerpt: Nc/Nga mice (Supplier: Central Animal Laboratory, South Korea, Male, 8 weeks old) were used, with 8 mice per group. The experimental animals were allowed free access to Purina Nestle feed (Switzerland) and water. The mice were shaved using clippers and depilatory cream one day (day 0) before applying Df cream (Dermatophagoides farina cream, Biostir AD, Biostir Incorporation). Df cream was applied to the mouse dorsal area twice a week for 5 weeks to induce atopic dermatitis. After confirming lesions in all mice, compound 27 of the present invention was administered topically or orally for 3 weeks (21 days) from 2 weeks after Df cream application. For topical administration, compound 27 was mixed with 100% ethanol to achieve concentrations of 0.3%, 1%, or 3%, and applied once daily. It was applied to both ears (25 μL each) and the dorsal area (70 μL). 100% ethanol was used as the topical vehicle. For oral administration, compound 27 was administered at doses of 25 mpk (once daily, QD), 50 mpk (QD), or 10 mpk (twice daily, BID). […]
Skin indicators were recorded through visual observation once a week (on days 0, 7, 14, 21, 28, and 36). […] Each item was scored as follows: no symptoms (0 points), mild symptoms (1 point), moderate symptoms (2 points), and severe symptoms (3 points). The total score was calculated by summing up scores for all items.

[3] = test system: p-STAT5; experiment: TSLP-induced p-STAT5 in bone marrow-derived dendritic cells (BMDCs), Western blot; type: cell-based, mouse
Method: C57BL/6J mice (JA BIO, DBL-0011, male, 6-12 weeks old) were euthanized, and femurs and tibias were separated after cervical dislocation and then were stored in PBS (HyClone, Cat No. SH30028.02). After removing tissues as much as possible from femurs and tibias, both ends of the bones were cut vertically, and bone marrow was quickly collected with a 5 mL syringe (Korea Vaccine, 5 cc syringe 22 g). After centrifugation at 1800 rpm for 3 minutes, the supernatant was discarded, 10 mL PBS was added to resuspend the cells, and the mixture was filtered through a 100 µm cell strainer. […]
The obtained BMDCs were pre-treated with compound 27, Jak1 inhibitor (Filgotinib, Selleck, Cat No. JS7605), or Jak2 inhibitor (SD-1029, Sigma, Cat No. 573098) 30 minutes or 1 hour prior to treatment. […] After quantifying the protein using the BCA protein assay kit (Thermo, Cat No. 23225), 5×SDS-PAGE loading buffer (Biosesang, Cat No. SF2002-110-00) was added, boiled for 5 minutes at 103° C., and stored at −20° C. […]
BR1706516)] for 2 hours at room temperature. After washing with TBS-T, the membrane was incubated with ECL solution (Thermo, Cat No. 32209), and protein bands were detected using the iBright imaging system (Invitrogen, Model No. FL1500). Each band intensity was measured using ImageJ software (version 1.38; National Institutes of Health), and the pSTAT5/STAT ratio was calculated. […]

CCC(NC)C(=O)NCc1ccc(OCc2ccc(C(F)(F)F)cc2)cc1 (racemic) [Compound 27, (R)/(S)-2-(methylamino)-N-(4-((4-trifluoromethyl)benzyl)oxy)benzyl)butanamide]
amount of induced interleukin-13 [1]: decreased proportionally | improvement of skin lesions (Modified SCORAD score) [2]: superior effect | reduction in p-STAT5 ([3]; 2 pM, compared to the TSLP-treated group): 51% | p-STAT5 (pSTAT5/STAT ratio) ([3]; BMDCs, TSLP treatment): significantly reduced
